Results taken from US20220062240A1, “METHODS OF TREATING CANCER USING A CLK INHIBITOR” (BioSplice Therapeutics, Inc., priority 2018, published 2022).
Read-outs that look alike come from different tables or passages of the source.

Experiments:
[1] = test system: lung cancer (4 cell lines); assay: CellTiter-Glo Viability Assay, lung cancer; type: cell-based; conditions: Homo sapiens, inhibition of cancer cell proliferation
[2] = test system: pancreatic cancer (8 cell lines); assay: CellTiter-Glo Viability Assay, pancreatic cancer; type: cell-based; conditions: Homo sapiens, inhibition of cancer cell proliferation
[3] = test system: ovarian cancer (4 cell lines); assay: CellTiter-Glo Viability Assay, ovarian cancer; type: cell-based; conditions: Homo sapiens, inhibition of cancer cell proliferation
HCC1599 = assay: CellTiter-Glo Viability Assay, breast cancer; type: cell-based; conditions: Homo sapiens, 96 h; HCC1599, breast cancer, four days; read-out: EC50
ZR-75-1 = assay: CellTiter-Glo Viability Assay, breast cancer; type: cell-based; conditions: Homo sapiens, 96 h; ZR-75-1, breast cancer, four days; read-out: EC50
MDA-MB-231-Luc = assay: CellTiter-Glo Viability Assay, breast cancer; type: cell-based; conditions: Homo sapiens, 96 h; MDA-MB-231-Luc, breast cancer, four days; read-out: EC50
BT-549 = assay: CellTiter-Glo Viability Assay, breast cancer; type: cell-based; conditions: Homo sapiens, 96 h; BT-549, breast cancer, four days; read-out: EC50
T47D = assay: CellTiter-Glo Viability Assay, breast cancer; type: cell-based; conditions: Homo sapiens, 96 h, breast cancer, four days, read-out: EC50
CAMA1 = assay: CellTiter-Glo Viability Assay, breast cancer; type: cell-based; conditions: Homo sapiens, CAMA-1, 96 h; CAMA1, breast cancer, four days; read-out: EC50
DU4475 = assay: CellTiter-Glo Viability Assay, breast cancer; type: cell-based; conditions: Homo sapiens, DU-4475, 96 h; DU4475, breast cancer, four days; read-out: EC50
MCF7 = assay: CellTiter-Glo Viability Assay, breast cancer; type: cell-based; conditions: Homo sapiens, 96 h; MCF7, breast cancer, four days; read-out: EC50
CLK3 = CLK3 (Homo sapiens, UniProt P49761); assay: CLK3 kinase activity assay (Z-lyte, Ser/Thr 18 peptide)
Chain of CLK3 (P49761 whole entry): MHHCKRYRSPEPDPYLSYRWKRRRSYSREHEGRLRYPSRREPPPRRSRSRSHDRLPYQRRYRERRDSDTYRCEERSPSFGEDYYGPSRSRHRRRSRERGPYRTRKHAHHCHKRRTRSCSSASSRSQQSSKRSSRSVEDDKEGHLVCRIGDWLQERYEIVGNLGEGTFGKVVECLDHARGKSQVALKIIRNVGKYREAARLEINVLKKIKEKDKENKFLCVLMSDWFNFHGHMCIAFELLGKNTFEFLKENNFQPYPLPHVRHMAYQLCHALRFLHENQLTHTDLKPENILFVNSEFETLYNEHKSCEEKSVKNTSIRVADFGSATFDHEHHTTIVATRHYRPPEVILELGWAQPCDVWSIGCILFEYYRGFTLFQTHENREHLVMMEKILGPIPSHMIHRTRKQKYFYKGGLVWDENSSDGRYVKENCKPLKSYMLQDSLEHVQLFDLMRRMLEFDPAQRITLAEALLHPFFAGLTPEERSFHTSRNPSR

[4] = test system: colorectal cancer (6 cell lines); assay: CellTiter-Glo Viability Assay, colorectal cancer; type: cell-based; conditions: Homo sapiens, inhibition of cancer cell proliferation
[5] = test system: liver cancer (3 cell lines); assay: CellTiter-Glo Viability Assay, liver cancer; type: cell-based; conditions: Homo sapiens, inhibition of cancer cell proliferation
CLK2 = biological target: T1, CLK2 (Homo sapiens, UniProt P49760); assay: CLK2 kinase activity assay (Z-lyte, Ser/Thr 6 peptide); type: biochemical; conditions: recombinant CLK2 kinase, ATP 60 μM; read-out: EC50
T1 construct: purchased Thermo Fisher (Life Technologies), Z'-LYTE Kinase Assay Kits
T1 sequence (P49760 whole entry): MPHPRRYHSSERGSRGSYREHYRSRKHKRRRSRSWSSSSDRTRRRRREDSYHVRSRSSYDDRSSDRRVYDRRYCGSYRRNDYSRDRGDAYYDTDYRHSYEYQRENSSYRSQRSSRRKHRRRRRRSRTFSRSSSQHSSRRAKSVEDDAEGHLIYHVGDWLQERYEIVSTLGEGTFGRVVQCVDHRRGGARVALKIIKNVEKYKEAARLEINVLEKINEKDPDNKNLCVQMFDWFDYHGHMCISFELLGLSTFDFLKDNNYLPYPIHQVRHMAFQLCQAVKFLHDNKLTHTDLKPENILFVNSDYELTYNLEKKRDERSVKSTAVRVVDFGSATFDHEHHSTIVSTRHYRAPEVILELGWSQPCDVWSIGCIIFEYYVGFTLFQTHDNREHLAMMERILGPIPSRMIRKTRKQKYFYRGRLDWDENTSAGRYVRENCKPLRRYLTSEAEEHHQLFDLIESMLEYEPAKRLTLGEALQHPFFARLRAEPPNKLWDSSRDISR
Protocol: All reactions were performed in duplicate.

all 50 cell lines = assay: CellTiter-Glo Viability Assay, average across all cell lines; type: cell-based; conditions: Homo sapiens; across all 50 cell lines; read-out: average EC50 for inhibition of cancer cell proliferation
Procedure, shortened: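 4-day proliferation, 37° C/5% CO2; 300-3,000 cells/well; compound in duplicate vs DMSO controls. Panel: breast, colorectal, heme/lymphoid, liver, lung, ovarian, pancreatic, prostate lines. Read-out: CellTiter-Glo ATP luminescence, EC50 from dose-response.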

[6] = test system: prostate cancer (5 cell lines); assay: CellTiter-Glo Viability Assay, prostate cancer; type: cell-based; conditions: Homo sapiens
[7] = test system: haematopoietic & lymphoid tumors (13 cell lines); assay: CellTiter-Glo Viability Assay, haematopoietic & lymphoid tumors; type: cell-based; conditions: Homo sapiens, inhibition of cancer cell proliferation
[8] = A-427, A427 cell line, read-out: Lung cancer, EC50 (μM) A427
[9] = HCC78, HCC-78 cell line, read-out: Lung cancer, EC50 (μM) HCC-78
[10] = NCI-H460 cell line, read-out: Lung cancer, EC50 (μM) NCI-H460
[11] = NCI-H522 cell line, read-out: Lung cancer, EC50 (μM) NCI-H522
[12] = BXPC-3, BxPC3 cell line, read-out: Pancreatic cancer, EC50 BxPC3
[13] = CAPAN-1, Capan1 cell line, read-out: Pancreatic cancer, EC50 Capan1
[14] = Capan-2, Capan2 cell line, read-out: Pancreatic cancer, EC50 Capan2
[15] = MIA PaCa-2 cell line, read-out: Pancreatic cancer, EC50 MIA PaCa-2
[16] = PANC 05.04 cell line, read-out: Pancreatic cancer, EC50 PANC 05.04
[17] = PANC-1 cell line, read-out: Pancreatic cancer, EC50 PANC-1
[18] = UPAFII cell line, read-out: Pancreatic cancer, EC50 UPAFII
[19] = HCT-116, HCT116 cell line, read-out: Colorectal cancer, EC50 (μM) HCT116
[20] = HT-29, HT29 cell line, read-out: Colorectal cancer, EC50 (μM) HT29
[21] = SW-620, SW620 cell line, read-out: Colorectal cancer, EC50 (μM) SW620
[22] = DLD-1 cell line, read-out: Colorectal cancer, EC50 (μM) DLD-1
[23] = SW48 cell line, read-out: Colorectal cancer, EC50 (μM) SW48
[24] = SW480 cell line, read-out: Colorectal cancer, EC50 (μM) SW480
[25] = SNU-398, SNU398 cell line, read-out: Liver cancer, EC50 SNU398
[26] = HEPG2 cell line, read-out: Liver cancer, EC50 HEPG2
[27] = PLC/PRF/5 cell line, read-out: Liver cancer, EC50 PLC/PRF/5
[28] = DU-145, read-out: Prostate cancer EC50 Du-145
[29] = PC-3, PC3 cell line, inhibition of cancer cell proliferation, read-out: Prostate cancer EC50 PC3
[30] = 22Rv1 cell line, inhibition of cancer cell proliferation, read-out: Prostate cancer EC50 22Rv1
[31] = LNCap clone FGC cell line, inhibition of cancer cell proliferation, read-out: Prostate cancer EC50 LNCap clone FGC
[32] = VCaP (Sigma) cell line, inhibition of cancer cell proliferation, read-out: Prostate cancer EC50 VCaP (Sigma)

CN(C)CCOc1cc(C(=O)Nc2cc3cc(-c4cnn(C)c4)ccc3cn2)ccn1 [Compound 73]
EC50 [1, 8]: 0.29 µM | EC50 [1, 9]: 0.504 µM | EC50 [1, 10]: 0.396 µM | EC50 [1, 11]: 0.144 µM | EC50 [2, 12]: 451 nM | EC50 [2, 13]: 249 nM | EC50 [2, 14]: 555 nM | EC50 [2, 15]: 141 nM | EC50 [2, 16]: 232 nM | EC50 [2, 17]: 401 nM | EC50 [2, 18]: 203 nM | EC50 ([3]; PA-1, PA1 cell line, read-out: Ovarian cancer, EC50 (μM) PA1): 0.325 µM | EC50 ([3]; TOV112D, TOV-112D cell line, read-out: Ovarian cancer, EC50 (μM) TOV-112D): 0.165 µM | EC50 ([3]; OV-90 cell line, read-out: Ovarian cancer, EC50 (μM) OV-90): 0.486 µM | EC50 ([3]; OVCAR-3 cell line, read-out: Ovarian cancer, EC50 (μM) OVCAR-3): 0.123 µM | EC50 (HCC1599): 73 nM | EC50 (ZR-75-1): 467 nM | EC50 (MDA-MB-231-Luc): 374 nM | EC50 (BT-549): 272 nM | EC50 (T47D): 534 nM | EC50 (CAMA1): 379 nM | EC50 (DU4475): 163 nM | EC50 (MCF7): 914 nM | EC50 (CLK3): 31.2 nM | EC50 [4, 19]: 0.155 µM | EC50 [4, 20]: 0.385 µM | EC50 [4, 21]: 0.13 µM | EC50 [4, 22]: 0.241 µM | EC50 [4, 23]: 0.105 µM | EC50 [4, 24]: 0.16 µM | EC50 [5, 25]: 88 nM | EC50 [5, 26]: 383 nM | EC50 [5, 27]: 674 nM | EC50 (CLK2): 1.9 nM | EC50 (all 50 cell lines): 306 nM | EC50 [6, 28]: 308 nM | EC50 [6, 29]: 302 nM | EC50 [6, 30]: 194 nM | EC50 [6, 31]: 526 nM | EC50 [6, 32]: 430 nM

Cn1ncc(-c2ccc3cnc(NC(=O)c4cccc(CN5CCCC5)c4)cc3c2)c1CN1CCCCC1 [Compound 78]
EC50 [1, 8]: 0.672 µM | EC50 [1, 9]: 1.1 µM | EC50 [1, 10]: 0.856 µM | EC50 [1, 11]: 0.395 µM | EC50 [2, 12]: 1110 nM | EC50 [2, 13]: 627 nM | EC50 [2, 14]: 1040 nM | EC50 [2, 15]: 272 nM | EC50 [2, 16]: 818 nM | EC50 [2, 17]: 736 nM | EC50 [2, 18]: 381 nM | EC50 (HCC1599): 512 nM | EC50 (ZR-75-1): 711 nM | EC50 (MDA-MB-231-Luc): 677 nM | EC50 (BT-549): 655 nM | EC50 (T47D): 888 nM | EC50 (CAMA1): 561 nM | EC50 (DU4475): 381 nM | EC50 (MCF7): 1420 nM | EC50 (CLK3): 14.6 nM | EC50 [4, 19]: 0.38 µM | EC50 [4, 20]: 0.674 µM | EC50 [4, 21]: 0.198 µM | EC50 [4, 22]: 0.499 µM | EC50 [4, 23]: 0.182 µM | EC50 [4, 24]: 0.404 µM | EC50 [5, 25]: 132 nM | EC50 [5, 26]: 845 nM | EC50 [5, 27]: 1290 nM | EC50 (CLK2): 1.6 nM | EC50 (all 50 cell lines): 610 nM | EC50 [6, 28]: 713 nM | EC50 [6, 29]: 674 nM | EC50 [6, 30]: 525 nM | EC50 [6, 31]: 966 nM | EC50 [6, 32]: 546 nM | EC50 ([7]; DND41, DND-41 cell line, read-out: Haematopoietic & Lymphoid tumors, EC50 (μM) DND-41): 0.513 µM | EC50 ([7]; MV4-11, MV-4-11 cell line, read-out: Haematopoietic & Lymphoid tumors, EC50 (μM) MV-4-11): 0.099 µM | EC50 ([7]; Rec1, REC-1 cell line, read-out: Haematopoietic & Lymphoid tumors, EC50 (μM) REC-1): 0.164 µM | EC50 ([7]; SU-DHL-4, SUDHL4 cell line, read-out: Haematopoietic & Lymphoid tumors, EC50 (μM) SUDHL4): 0.62 µM | EC50 ([7]; HL-60 cell line, read-out: Haematopoietic & Lymphoid tumors, EC50 (μM) HL-60): 1.29 µM | EC50 ([7]; JM1 cell line, read-out: Haematopoietic & Lymphoid tumors, EC50 (μM) JM1): 0.177 µM | EC50 ([7]; JURKAT, Clone E6-1 cell line, read-out: Haematopoietic & Lymphoid tumors, EC50 (μM) JURKAT, Clone E6-1): 0.976 µM | EC50 ([7]; JeKo-1 cell line, read-out: Haematopoietic & Lymphoid tumors, EC50 (μM) JeKo-1): 0.228 µM | EC50 ([7]; KASUMI-1 cell line, read-out: Haematopoietic & Lymphoid tumors, EC50 (μM) KASUMI-1): 0.363 µM | EC50 ([7]; Loucy cell line, read-out: Haematopoietic & Lymphoid tumors, EC50 (μM) Loucy): 0.522 µM | EC50 ([7]; MOLT-4 cell line, read-out: Haematopoietic & Lymphoid tumors, EC50 (μM) MOLT-4): 0.562 µM | EC50 ([7]; TF-1 cell line, read-out: Haematopoietic & Lymphoid tumors, EC50 (μM) TF-1): 0.897 µM | EC50 ([7]; TOLEDO cell line, read-out: Haematopoietic & Lymphoid tumors, EC50 (μM) TOLEDO): 0.156 µM
